Earlier results, collected in paper PMC7350276 (Journal of pharmaceutical and biomedical analysis, 2019).
Read-outs that look alike come from different tables or passages of the source.

Assays:
μ-opioid receptors [1] = tested on: μ-opioid receptors
[2] = male rats, I.V. 4 mg/kg
μ-opioid receptors [3] = conditions: reversal of morphine-induced inhibition of twitch of the Guinea pig ileum
rabbits [4] = conditions: subcutaneous 15–20 mg/kg, co-injected with 0.2 mg/kg adrenaline
rabbits [5] = conditions: intravenously at doses higher than 10 mg/kg
[6] = I.V. 5 mg/kg, mean ± R.S.D.

CC[C@@H]1CN2CC[C@@]3(O)C(=Nc4cccc(OC)c43)[C@@H]2C[C@@H]1/C(=C\OC)C(=O)OC [7HMG, 7-hydroxymitragynine]
Functional activity at μ-opioid receptors (μ-opioid receptors [1]; no reference given): potent μ-opioid agonist | MRT [2]: 1.18 ± 0.167 h

corynantheidine
Functional activity at μ-opioid receptors (μ-opioid receptors [3]): antagonist | Effect on adrenaline-induced mydriasis (rabbits [4]): prevented adrenaline-induced mydriasis | Effect on hypertensive effects of adrenaline (rabbits [5]): almost fully blocked

mitragynine [MG]
Functional activity at μ-opioid receptors (μ-opioid receptors [1]): partial agonist | MRT [6]: 137 ± 18
